Measured values published in patent US8258114B2, “Modulation of glucose-6-phosphatase translocase expression” (Isis Pharmaceuticals, Inc., priority 2004, dated 2012).
Oligonucleotides are written 5' to 3', each unit as a sugar letter and its base; * is a phosphorothioate linkage, no mark a phosphodiester; rarer units and linkages stand in square brackets, end groups in braces. Plain capitals give the bases only. e = 2'-O-(2-methoxyethyl) (MOE); [5mC] = 5-methylcytosine; d = 2'-deoxy (DNA)

The sequences below were run on mouse glucose-6-phosphatase translocase mRNA (assay: Antisense inhibition of mouse glucose-6-phosphatase translocase mRNA in primary mouse hepatocytes, 50 nM (Table 5)). Settings: 50 nM oligonucleotide, mRNA by real-time PCR, normalized with RIBOGREEN.
Assay type: cell-based
Protocol: Primary mouse hepatocytes were prepared from CD-1 mice purchased from Charles River Labs. Primary mouse hepatocytes were routinely cultured in Hepatocyte Attachment Media supplemented with 10% fetal bovine serum (Invitrogen Life Technologies, Carlsbad, Calif.), 250 nM dexamethasone, and 10 nM bovine insulin (Sigma-Aldrich, St. Louis, Mo.). Cells were seeded into 96-well plates (Falcon-Primaria #353872, BD Biosciences, Bedford, Mass.) at a density of approximately 4,000-6,000 cells/well for use in oligomeric compound transfection experiments.
Quantitation of glucose 6-phosphatase translocase mRNA levels was accomplished by real-time quantitative PCR using the ABI PRISM™ 7600, 7700, or 7900 Sequence Detection System (PE-Applied Biosystems, Foster City, Calif.) according to manufacturer's instructions.
Prior to quantitative PCR analysis, primer-probe sets specific to the target gene being measured were evaluated for their ability to be “multiplexed” with a GAPDH amplification reaction. After isolation the RNA is subjected to sequential reverse transcriptase (RT) reaction and real-time PCR, both of which are performed in the same well. RT and PCR reagents were obtained from Invitrogen Life Technologies (Carlsbad, Calif.). […] The RT reaction was carried out by incubation for 30 minutes at 48° C. Following a 10 minute incubation at 95° C. to activate the PLATINUM® Taq, 40 cycles of a two-step PCR protocol were carried out: 95° C. for 15 seconds (denaturation) followed by 60° C. for 1.5 minutes (annealing/extension).
Gene target quantities obtained by RT, real-time PCR were normalized using either the expression level of GAPDH, a gene whose expression is constant, or by quantifying total RNA using RiboGreen™ (Molecular Probes, Inc. Eugene, Oreg.). GAPDH expression was quantified by RT, real-time PCR, by being run simultaneously with the target, multiplexing, or separately. Total RNA was quantified using RiboGreen™ RNA quantification reagent (Molecular Probes, Inc. Eugene, Oreg.).
A series of oligomeric compounds was designed to target different regions of mouse glucose-6-phosphatase translocase, using published sequences cited in Table 1. All compounds in Table 5 are chimeric oligonucleotides (“gapmers”) 20 nucleotides in length, composed of a central “gap” region consisting of 10 2′-deoxynucleotides, which is flanked on both sides (5′ and 3′) by five-nucleotide “wings”. The wings are composed of 2′-O-(2-methoxyethyl) nucleotides, also known as 2′-MOE nucleotides. The internucleoside (backbone) linkages are phosphorothioate throughout the oligonucleotide. All cytidine residues are 5-methylcytidines. The compounds were analyzed for their effect on gene target mRNA levels by quantitative real-time PCR as described in other examples herein, using the following primer-probe set designed to hybridize to mouse glucose-6-phosphatase translocase: • forward primer: […] (SEQ ID NO: 66) • reverse primer: CCATCCCAGCCATCATGAG (SEQ ID NO: 67) and the PCR probe was: FAM-[…]-TAMRA (SEQ ID NO: 68) where FAM is the fluorescent reporter dye and TAMRA is the quencher dye. Mouse target gene quantities were normalized by quantifying total RNA using RIBOGREEN™.
Data are from experiments in which primary mouse hepatocytes were treated with 50 nM of the antisense oligonucleotides of the present invention. A reduction in expression is expressed as percent inhibition in Table 5. If present, “N.D.” indicates “not determined”. The target regions to which these oligomeric compounds are inhibitory are herein referred to as “validated target segments.”

Going from “GGCAGAAACCACAGGCCATT (eG*eG*e[5mC]*eA*eG*dA*dA*dA*d[5mC]*d[5mC]*dA*d[5mC]*dA*dG*dG*e[5mC]*e[5mC]*eA*eT*eT; antisense) [ISIS 149000]” to “GGCTGCTTGTGATGAGCCCC (eG*eG*e[5mC]*eT*eG*d[5mC]*dT*dT*dG*dT*dG*dA*dT*dG*dA*eG*e[5mC]*e[5mC]*e[5mC]*e[5mC]; antisense) [ISIS 148949]”, the “% Inhib” value falls from 56% to 52%.

Compared with “GGGACCTCATTAGCCACTGG (eG*eG*eG*eA*e[5mC]*d[5mC]*dT*d[5mC]*dA*dT*dT*dA*dG*d[5mC]*d[5mC]*eA*e[5mC]*eT*eG*eG; antisense) [ISIS 148993]”, “GGGACTGAGGTATTGGCATC (eG*eG*eG*eA*e[5mC]*dT*dG*dA*dG*dG*dT*dA*dT*dT*dG*eG*e[5mC]*eA*eT*e[5mC]; antisense) [ISIS 149003]” is lower in “% Inhib” value: 55% for the first, 9% for the second.

First: GGGTACGGCAGAAACCACAG (eG*eG*eG*eT*eA*d[5mC]*dG*dG*d[5mC]*dA*dG*dA*dA*dA*d[5mC]*e[5mC]*eA*e[5mC]*eA*eG; antisense) [ISIS 149001]
Second: GTGATGAGCCCCAAATCGTC (eG*eT*eG*eA*eT*dG*dA*dG*d[5mC]*d[5mC]*d[5mC]*d[5mC]*dA*dA*dA*eT*e[5mC]*eG*eT*e[5mC]; antisense) [ISIS 148948]
The “% Inhib” value of the first is lower: 42% for the first, 52% for the second.

Going from “GTGGAGACACAGAAACGTAA (eG*eT*eG*eG*eA*dG*dA*d[5mC]*dA*d[5mC]*dA*dG*dA*dA*dA*e[5mC]*eG*eT*eA*eA; antisense) [ISIS 148992]” to “TACAGCAAGTCTTTACTCCG (eT*eA*e[5mC]*eA*eG*d[5mC]*dA*dA*dG*dT*d[5mC]*dT*dT*dT*dA*e[5mC]*eT*e[5mC]*e[5mC]*eG; antisense) [ISIS 148962]”, the “% Inhib” value falls from 51% to 47%.

Compared with “TACTCGGAAGAGATACGTGG (eT*eA*e[5mC]*eT*e[5mC]*dG*dG*dA*dA*dG*dA*dG*dA*dT*dA*e[5mC]*eG*eT*eG*eG; antisense) [ISIS 148974]”, “TATAGGAGACACCCTGAATT (eT*eA*eT*eA*eG*dG*dA*dG*dA*d[5mC]*dA*d[5mC]*d[5mC]*d[5mC]*dT*eG*eA*eA*eT*eT; antisense) [ISIS 148996]” is lower in “% Inhib” value: 8% for the first, −3% for the second.

Compared with “TATTGGCATCAATTTTGCCC (eT*eA*eT*eT*eG*dG*d[5mC]*dA*dT*d[5mC]*dA*dA*dT*dT*dT*eT*eG*e[5mC]*e[5mC]*e[5mC]; antisense) [ISIS 149002]”, “TCACTCTCCCTTCTTGGATA (eT*e[5mC]*eA*e[5mC]*eT*d[5mC]*dT*d[5mC]*d[5mC]*d[5mC]*dT*dT*d[5mC]*dT*dT*eG*eG*eA*eT*eA; antisense) [ISIS 148984]” is higher in “% Inhib” value: 22% for the first, 60% for the second.

Compared with “TCATGAGAGTGGTGGACTCC (eT*e[5mC]*eA*eT*eG*dA*dG*dA*dG*dT*dG*dG*dT*dG*dG*eA*e[5mC]*eT*e[5mC]*e[5mC]; antisense) [ISIS 149005]”, “TCATGCTGGTTGACAACACA (eT*e[5mC]*eA*eT*eG*d[5mC]*dT*dG*dG*dT*dT*dG*dA*d[5mC]*dA*eA*e[5mC]*eA*e[5mC]*eA; antisense) [ISIS 148955]” is higher in “% Inhib” value: 27% for the first, 36% for the second.

Compared with “TCCTCTCCTCCCTTAGGGAC (eT*e[5mC]*e[5mC]*eT*e[5mC]*dT*d[5mC]*d[5mC]*dT*d[5mC]*d[5mC]*d[5mC]*dT*dT*dA*eG*eG*eG*eA*e[5mC]; antisense) [ISIS 149004]”, “TCGTCCTTGTCCAGAGCGAT (eT*e[5mC]*eG*eT*e[5mC]*d[5mC]*dT*dT*dG*dT*d[5mC]*d[5mC]*dA*dG*dA*eG*e[5mC]*eG*eA*eT; antisense) [ISIS 148946]” is higher in “% Inhib” value: 42% for the first, 70% for the second.

Going from “TCTCTTTAGTGCCTGGATCT (eT*e[5mC]*eT*e[5mC]*eT*dT*dT*dA*dG*dT*dG*d[5mC]*d[5mC]*dT*dG*eG*eA*eT*e[5mC]*eT; antisense) [ISIS 148937]” to “TGCCTGGATCTGCTGAGCTG (eT*eG*e[5mC]*e[5mC]*eT*dG*dG*dA*dT*d[5mC]*dT*dG*d[5mC]*dT*dG*eA*eG*e[5mC]*eT*eG; antisense) [ISIS 148936]”, the “% Inhib” value falls from 52% to 39%.
